Measurements from patent publication US12606541B2, “PPARg modulators and methods of use” (Eisai R&D Management Co., Ltd., priority 2020, dated 2026).

Molecular target: T1, His6-TEV-PPARγ-(234-505) (Homo sapiens, UniProt P37231)
T1 construct: The His6-TEV-PPARγ-(234-505) protein for assay was expressed and purified; TEV cleavage site (N); made in house
T1 sequence (P37231 234-505): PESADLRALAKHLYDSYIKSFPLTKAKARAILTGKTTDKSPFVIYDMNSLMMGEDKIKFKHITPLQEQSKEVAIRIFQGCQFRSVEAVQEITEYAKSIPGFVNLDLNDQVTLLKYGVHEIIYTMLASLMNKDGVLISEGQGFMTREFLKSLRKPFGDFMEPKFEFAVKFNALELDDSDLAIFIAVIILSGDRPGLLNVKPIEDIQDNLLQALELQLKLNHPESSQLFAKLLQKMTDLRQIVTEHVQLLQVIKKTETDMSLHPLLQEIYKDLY
Test: TR-FRET Assay to Measure Co-R Peptide Recruitment to PPARγ
Type: biochemical
Settings: Co-R peptide recruitment to PPARγ; read-out: TR-FRET AC50
Method: TR-FRET Assay to Measure Co—R Peptide Recruitment to PPARγ
The 2× detection solution contained anti-6×His-Terbium antibody (CisBio) and FITC labeled Co—R peptide (SMRT-ID2 from New England Peptide) at final concentrations of 5 and 200 nM respectively.
In these assay plates, the positive control in column 24 contained 500 nM (final) T0070907 and the negative control in column 23 contained an identical volume of DMSO. Then, 5 μL of 2+ protein working stock or controls were added to the plate and incubated for 20 minutes at room temperature. Reagents additions were performed with either a Combi (Thermo) or Mantis (Formulatory) pipetting device. The incubation was followed by addition of 5 μL of the 2× detection solution. Plates were covered, centrifuged, and incubated for an additional hour. The TR-FRET data was recorded with an Envision plate reader (Perkin Elmer), using settings recommended by Thermo Fisher. The TR-FRET signal of the positive and negative control's recruitment of FITC-Co—R peptide was used to normalize the TR-FRET signal to percent response and to determine the assay Z prime. Experiments were performed in triplicate and analyzed in GraphPad Prism 7.

| SMILES | AC50 |
| --- | --- |
| COc1cc(-c2cc(C(=O)N3CCC(C(=O)NC4c5ccccc5CC4O)CC3)n[nH]2)c(Cl)cn1 (stereo not shown) [1-[5-(5-chloro-2-methoxypyridin-4-yl)-1H-pyrazole-3-carbonyl]-N-(2-hydroxy-2,3-dihydro-1H-inden-1-yl)piperidine-4-carboxamide] | > 1 µM |
| COc1cc(-c2cc(C(=O)N3CCC(C(=O)NC4CCCc5[nH]c(=O)ccc54)CC3)n[nH]2)c(Cl)cn1 (stereo not shown) [1-[5-(5-chloro-2-methoxypyridin-4-yl)-1H-pyrazole-3-carbonyl]-N-(2-oxo-1,2,5,6,7,8-hexahydroquinolin-5-yl)piperidine-4-carboxamide] | > 1 µM |
| COc1cc(-c2cc(C(=O)N3CCC(C(=O)NC(C)(C)c4ccccc4)CC3)n[nH]2)c(Cl)cn1 [1-[5-(5-chloro-2-methoxypyridin-4-yl)-1H-pyrazole-3-carbonyl]-N-(2-phenylpropan-2-yl)piperidine-4-carboxamide] | > 1 µM |
| COc1cc(-c2cc(C(=O)N3CCC(C(=O)NC4(C)CC(F)(F)C4)CC3)n[nH]2)c(Cl)cn1 [1-[5-(5-chloro-2-methoxypyridin-4-yl)-1H-pyrazole-3-carbonyl]-N-(3,3-difluoro-1-methylcyclobutyl)piperidine-4-carboxamide] | > 1 µM |
| COc1cc(-c2cc(C(=O)N3CCC(C(=O)NC4CC(F)(F)C4)CC3)n[nH]2)c(Cl)cn1 [1-[5-(5-chloro-2-methoxypyridin-4-yl)-1H-pyrazole-3-carbonyl]-N-(3,3-difluorocyclobutyl)piperidine-4-carboxamide] | > 1 µM |
| COc1cc(-c2cc(C(=O)N3CCC(C(=O)Nc4nc(C)cnc4C)CC3)n[nH]2)c(Cl)cn1 [1-[5-(5-chloro-2-methoxypyridin-4-yl)-1H-pyrazole-3-carbonyl]-N-(3,6-dimethylpyrazin-2-yl)piperidine-4-carboxamide] | > 1 µM |
| COc1cc(-c2cc(C(=O)N3CCC(C(=O)NC4CCC(O)C4)CC3)n[nH]2)c(Cl)cn1 (stereo not shown) [1-[5-(5-chloro-2-methoxypyridin-4-yl)-1H-pyrazole-3-carbonyl]-N-(3-hydroxycyclopentyl)piperidine-4-carboxamide] | > 1 µM |
| COc1cc(-c2cc(C(=O)N3CCC(C(=O)Nc4nccnc4O)CC3)n[nH]2)c(Cl)cn1 [1-[5-(5-chloro-2-methoxypyridin-4-yl)-1H-pyrazole-3-carbonyl]-N-(3-hydroxypyrazin-2-yl)piperidine-4-carboxamide] | > 1 µM |
| COc1cc(-c2cc(C(=O)N3CCC(C(=O)NC4CCC(C#N)CC4)CC3)n[nH]2)c(Cl)cn1 (stereo not shown) [1-[5-(5-chloro-2-methoxypyridin-4-yl)-1H-pyrazole-3-carbonyl]-N-(4-cyanocyclohexyl)piperidine-4-carboxamide] | > 1 µM |
| CCC1(O)CCC(NC(=O)C2CCN(C(=O)c3cc(-c4cc(OC)ncc4Cl)[nH]n3)CC2)CC1 (stereo not shown) [1-[5-(5-chloro-2-methoxypyridin-4-yl)-1H-pyrazole-3-carbonyl]-N-(4-ethyl-4-hydroxycyclohexyl)piperidine-4-carboxamide] | > 1 µM |
| COc1cc(-c2cc(C(=O)N3CCC(C(=O)Nc4noc5cccc(F)c45)CC3)n[nH]2)c(Cl)cn1 [1-[5-(5-chloro-2-methoxypyridin-4-yl)-1H-pyrazole-3-carbonyl]-N-(4-fluoro-1,2-benzoxazol-3-yl)piperidine-4-carboxamide] | > 1 µM |
| COc1cc(-c2cc(C(=O)N3CCC(C(=O)NC4CCC(C)(OC)CC4)CC3)n[nH]2)c(Cl)cn1 (stereo not shown) [1-[5-(5-chloro-2-methoxypyridin-4-yl)-1H-pyrazole-3-carbonyl]-N-(4-methoxy-4-methylcyclohexyl)piperidine-4-carboxamide] | > 1 µM |
| COc1cc(-c2cc(C(=O)N3CCC(C(=O)NC4(C)CCOCC4)CC3)n[nH]2)c(Cl)cn1 [1-[5-(5-chloro-2-methoxypyridin-4-yl)-1H-pyrazole-3-carbonyl]-N-(4-methyloxan-4-yl)piperidine-4-carboxamide] | > 1 µM |
| COc1cc(-c2cc(C(=O)N3CCC(C(=O)Nc4cnncc4Cl)CC3)n[nH]2)c(Cl)cn1 [1-[5-(5-chloro-2-methoxypyridin-4-yl)-1H-pyrazole-3-carbonyl]-N-(5-chloropyridazin-4-yl)piperidine-4-carboxamide] | > 1 µM |
| COc1cc(-c2cc(C(=O)N3CCC(C(=O)Nc4cnc(C)cn4)CC3)n[nH]2)c(Cl)cn1 [1-[5-(5-chloro-2-methoxypyridin-4-yl)-1H-pyrazole-3-carbonyl]-N-(5-methylpyrazin-2-yl)piperidine-4-carboxamide] | > 1 µM |
| COc1cc(-c2cc(C(=O)N3CCC(C(=O)NC4CNC(=O)C4)CC3)n[nH]2)c(Cl)cn1 (stereo not shown) [1-[5-(5-chloro-2-methoxypyridin-4-yl)-1H-pyrazole-3-carbonyl]-N-(5-oxopyrrolidin-3-yl)piperidine-4-carboxamide] | > 1 µM |
| COc1cc(-c2cc(C(=O)N3CCC(C(=O)Nc4cc(-c5ccccc5)[nH]n4)CC3)n[nH]2)c(Cl)cn1 [1-[5-(5-chloro-2-methoxypyridin-4-yl)-1H-pyrazole-3-carbonyl]-N-(5-phenyl-1H-pyrazol-3-yl)piperidine-4-carboxamide] | > 1 µM |
| COc1cc(-c2cc(C(=O)N3CCC(C(=O)NC4CCS(=O)(=O)c5ccc(F)cc54)CC3)n[nH]2)c(Cl)cn1 (stereo not shown) [1-[5-(5-chloro-2-methoxypyridin-4-yl)-1H-pyrazole-3-carbonyl]-N-(6-fluoro-1,1-dioxo-3,4-dihydro-2H-1λ^6-benzothiopyran-4-yl)piperidine-4-carboxamide] | > 1 µM |
| COc1cc(-c2cc(C(=O)N3CCC(C(=O)Nc4cncc(C)n4)CC3)n[nH]2)c(Cl)cn1 [1-[5-(5-chloro-2-methoxypyridin-4-yl)-1H-pyrazole-3-carbonyl]-N-(6-methylpyrazin-2-yl)piperidine-4-carboxamide] | > 1 µM |
| COc1cc(-c2cc(C(=O)N3CCC(C(=O)Nc4cnnc5ccccc45)CC3)n[nH]2)c(Cl)cn1 [1-[5-(5-chloro-2-methoxypyridin-4-yl)-1H-pyrazole-3-carbonyl]-N-(cinnolin-4-yl)piperidine-4-carboxamide] | > 1 µM |
| COc1cc(-c2cc(C(=O)N3CCC(C(=O)NCc4nc5c(cnn5C)c(=O)[nH]4)CC3)n[nH]2)c(Cl)cn1 [1-[5-(5-chloro-2-methoxypyridin-4-yl)-1H-pyrazole-3-carbonyl]-N-({1-methyl-4-oxo-1H,4H,5H-pyrazolo[3,4-d]pyrimidin-6-yl}methyl)piperidine-4-carboxamide] | > 1 µM |
| COc1cc(-c2cc(C(=O)N3CCC(C(=O)NCc4ccn5c(C)c(C)nc5c4)CC3)n[nH]2)c(Cl)cn1 [1-[5-(5-chloro-2-methoxypyridin-4-yl)-1H-pyrazole-3-carbonyl]-N-({2,3-dimethylimidazo[1,2-a]pyridin-7-yl}methyl)piperidine-4-carboxamide] | > 1 µM |
| COc1cc(-c2cc(C(=O)N3CCC(C(=O)NCc4nc5cccnc5[nH]4)CC3)n[nH]2)c(Cl)cn1 [1-[5-(5-chloro-2-methoxypyridin-4-yl)-1H-pyrazole-3-carbonyl]-N-({3H-imidazo[4,5-b]pyridin-2-yl}methyl)piperidine-4-carboxamide] | > 1 µM |
| COc1cc(-c2cc(C(=O)N3CCC(C(=O)NCc4c(C)nc5cc(=O)[nH]n5c4C)CC3)n[nH]2)c(Cl)cn1 [1-[5-(5-chloro-2-methoxypyridin-4-yl)-1H-pyrazole-3-carbonyl]-N-({5,7-dimethyl-2-oxo-1H,2H-pyrazolo[1,5-a]pyrimidin-6-yl}methyl)piperidine-4-carboxamide] | > 1 µM |
| COc1cc(-c2cc(C(=O)N3CCC(C(=O)NCc4ccc5ncnn5c4)CC3)n[nH]2)c(Cl)cn1 [1-[5-(5-chloro-2-methoxypyridin-4-yl)-1H-pyrazole-3-carbonyl]-N-({[1,2,4]triazolo[1,5-a]pyridin-6-yl}methyl)piperidine-4-carboxamide] | > 1 µM |
| COc1cc(-c2cc(C(=O)N3CCC(C(=O)NCc4nnc5ccccn45)CC3)n[nH]2)c(Cl)cn1 [1-[5-(5-chloro-2-methoxypyridin-4-yl)-1H-pyrazole-3-carbonyl]-N-({[1,2,4]triazolo[4,3-a]pyridin-3-yl}methyl)piperidine-4-carboxamide] | > 1 µM |
| COc1cc(-c2cc(C(=O)N3CCC(C(=O)NCc4ccc5nncn5c4)CC3)n[nH]2)c(Cl)cn1 [1-[5-(5-chloro-2-methoxypyridin-4-yl)-1H-pyrazole-3-carbonyl]-N-({[1,2,4]triazolo[4,3-a]pyridin-6-yl}methyl)piperidine-4-carboxamide] | > 1 µM |
| COc1cc(-c2cc(C(=O)N3CCC(C(=O)NCc4cn5ccnc5cn4)CC3)n[nH]2)c(Cl)cn1 [1-[5-(5-chloro-2-methoxypyridin-4-yl)-1H-pyrazole-3-carbonyl]-N-({imidazo[1,2-a]pyrazin-6-yl}methyl)piperidine-4-carboxamide] | > 1 µM |
